These molecules were tested against 5-HT2A receptor (Homo sapiens (Human), UniProt P28223) (assay: Receptor Selection and Amplification (R-SAT) functional antagonist assay). Conditions: not given.
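Note: Read-out is β-galactosidase marker gene activity with ONPG substrate, measured after five days of growth in 96-well plates holding the test compound.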

Chain of 5-HT2A receptor (P28223 whole entry): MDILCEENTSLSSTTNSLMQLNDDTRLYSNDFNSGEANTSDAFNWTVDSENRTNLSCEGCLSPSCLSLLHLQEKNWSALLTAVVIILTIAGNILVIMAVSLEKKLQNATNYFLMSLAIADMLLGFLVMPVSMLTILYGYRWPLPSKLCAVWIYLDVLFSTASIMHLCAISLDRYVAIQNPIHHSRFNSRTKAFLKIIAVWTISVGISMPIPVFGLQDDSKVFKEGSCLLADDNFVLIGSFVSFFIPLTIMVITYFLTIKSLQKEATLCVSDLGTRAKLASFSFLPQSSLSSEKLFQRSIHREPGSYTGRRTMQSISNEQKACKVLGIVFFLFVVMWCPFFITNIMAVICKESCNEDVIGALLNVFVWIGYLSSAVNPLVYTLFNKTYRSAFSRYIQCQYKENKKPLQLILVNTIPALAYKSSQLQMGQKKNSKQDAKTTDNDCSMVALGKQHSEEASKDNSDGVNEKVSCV

Row | Structure (SMILES) | Ki | 5-HT2a pKi
1 | CC(C)Oc1ccc(COC(=O)N(Cc2ccc(F)cc2F)C2CCNCC2)cc1.O=C(O)C(F)(F)F [Compound 11, [4-(propan-2-yloxy)phenyl]methyl N-[(2,4-difluorophenyl)methyl]-N-(piperidin-4-yl)carbamate] |  | 9.6
2 | CC(C)Oc1ccc(COC(=O)N(Cc2ccc(F)cc2)[C@H]2CCN3CCC[C@H]3C2)cc1 [Compound 18, [4-(propan-2-yloxy)phenyl]methyl N-[(7S,8aS)-octahydroindolizin-7-yl]-N-[(4-fluorophenyl)methyl]carbamate] | 0.0158 nM | 
3 | CCOc1ccc(CC(=O)N(Cc2ccc(F)cc2F)C2CCN(C)CC2)cc1.O=C(O)C(F)(F)F [Compound 23, N-(2,4-difluorobenzyl)-2-(4-ethoxyphenyl)-N-(1-methylpiperidin-4-yl)acetamide; trifluoroacetic acid] |  | 7.8
4 | CCCCOc1ccc(CC(=O)N(Cc2ccc(F)cc2F)C2CCN(C)CC2)cc1.O=C(O)C(F)(F)F [Compound 24, N-(2,4-difluorobenzyl)-2-(4-butoxyphenyl)-N-(1-methylpiperidin-4-yl)acetamide trifluoroacetic acid] |  | 7.2
5 | CN1CCC(N(Cc2ccc(F)cc2F)C(=O)OCc2ccc(OCCCF)cc2)CC1.O=C(O)C(F)(F)F [Compound 27, 4-(3-fluoropropoxy)benzyl (2,4-difluorobenzyl)(1-methylpiperidin-4-yl)carbamate; trifluoroacetic acid] |  | 9.8
6 | CN1CCC(N(Cc2ccc(F)cc2F)C(=O)OCc2ccc(OC(CF)CF)cc2)CC1.O=C(O)C(F)(F)F [Compound 28, 4-((1,3-difluoropropan-2-yl)oxy)benzyl (2,4-difluorobenzyl)(1-methylpiperidin-4-yl)carbamate; trifluoroacetic acid] |  | 10.1
7 | CC(C)COc1ccc(CC(=O)N(Cc2ccc(Cl)cc2F)C2CCN(C)CC2)cc1.O=C(O)C(F)(F)F [Compound 31, N-[(4-chloro-2-fluorophenyl)methyl]-N-(1-methylpiperidin-4-yl)-2-[4-(2-methylpropoxy)phenyl]acetamide; trifluoroacetic acid] |  | 7.3
8 | COc1cc(F)c(CN(C(=O)Cc2ccc(OCC(C)C)cc2)C2CCN(C)CC2)c(F)c1.O=C(O)C(F)(F)F [Compound 33, N-[(2,6-difluoro-4-methoxyphenyl)methyl]-N-(1-methylpiperidin-4-yl)-2-[4-(2-methylpropoxy)phenyl]acetamide; trifluoroacetic acid] |  | 7.5

Further lines, with some results ahead:

Row | Ki | Structure (SMILES) | 5-HT2a pKi
9 | 0.1 nM | CC(C)Oc1ccc(COC(=O)N(Cc2ccc(F)cc2)[C@H]2CCNC[C@H]2F)cc1 (racemic) [3a/3b, [4-(propan-2-yloxy)phenyl]methyl N-[(4-fluorophenyl)methyl]-N-[(3R,4S)-3-fluoropiperidin-4-yl]carbamate (3a) and [4-(propan-2-yloxy)phenyl]methyl N-[(4-fluorophenyl)methyl]-N-[(3S,4R)-3-fluoropiperidin-4-yl]carbamate (3b)] | 
10 | 0.1 nM | CC(C)Oc1ccc(COC(=O)N(Cc2ccc(F)cc2)[C@H]2CCN(C)C[C@H]2F)cc1 (racemic) [4a/4b, [4-(propan-2-yloxy)phenyl]methyl N-[(3R,4S)-3-fluoro-1-methylpiperidin-4-yl]-N-[(4-fluorophenyl)methyl]carbamate (4a) and [4-(propan-2-yloxy)phenyl]methyl N-[(3S,4R)-3-fluoro-1-methylpiperidin-4-yl]-N-[(4-fluorophenyl)methyl]carbamate (4b)] | 
11 | 0.251 nM | CC(C)COc1ccc(COC(=O)N(Cc2ccc(F)cc2)[C@H]2CCNC[C@H]2F)cc1 (racemic) [5a/5b, [4-(2-methylpropoxy)phenyl]methyl N-[(4-fluorophenyl)methyl]-N-[(3R,4S)-3-fluoropiperidin-4-yl]carbamate (5a) and [4-(2-methylpropoxy)phenyl]methyl N-[(4-fluorophenyl)methyl]-N-[(3S,4R)-3-fluoropiperidin-4-yl]carbamate (5b)] | 
12 | 0.251 nM | CC(C)COc1ccc(COC(=O)N(Cc2ccc(F)cc2)[C@H]2CCN(C)C[C@H]2F)cc1 (racemic) [6a/6b, [4-(2-methylpropoxy)phenyl]methyl N-[(3R,4S)-3-fluoro-1-methylpiperidin-4-yl]-N-[(4-fluorophenyl)methyl]carbamate (6a) and [4-(2-methylpropoxy)phenyl]methyl N-[(3S,4R)-3-fluoro-1-methylpiperidin-4-yl]-N-[(4-fluorophenyl)methyl]carbamate (6b)] | 
13 | 63.1 nM | CC(C)COc1ccc(CCOC(=O)N(Cc2ccc(F)cc2)[C@H]2CCNC[C@H]2F)cc1 (racemic) [9a/9b, 2-[4-(2-methylpropoxy)phenyl]ethyl N-[(4-fluorophenyl)methyl]-N-[(3R,4S)-3-fluoropiperidin-4-yl]carbamate; trifluoroacetic acid (9a) and 2-[4-(2-methylpropoxy)phenyl]ethyl N-[(4-fluorophenyl)methyl]-N-[(3S,4R)-3-fluoropiperidin-4-yl]carbamate; trifluoroacetic acid (9b)] | 
14 | 15.8 nM | CC(C)COc1ccc(CCOC(=O)N(Cc2ccc(F)cc2)[C@H]2CCN(C)C[C@H]2F)cc1 (racemic) [10a/10b, 2-[4-(2-methylpropoxy)phenyl]ethyl N-[(3R,4S)-3-fluoro-1-methylpiperidin-4-yl]-N-[(4-fluorophenyl)methyl]carbamate (10a) and 2-[4-(2-methyl-propoxy)phenyl]ethyl N-[(3S,4R)-3-fluoro-1-methylpiperidin-4-yl]-N-[(4-fluorophenyl)-methyl]carbamate (10b)] | 

Same assay, conditions: R-SAT, transfected NIH3T3 cells; guidance: high affinity pKi≥8.4, moderate affinity pKi≥7.7

Row | Structure (SMILES) | 5-HT2a pKi
15 | CC(C)Oc1ccc(COC(=O)N(Cc2ccc(Cl)cc2)C2CCN(C)CC2)cc1 [Compound 1, [4-(propan-2-yloxy)phenyl]methyl N-[(4-chlorophenyl)methyl]-N-(1-methylpiperidin-4-yl)carbamate] | 9.7
16 | CC(C)Oc1ccc(COC(=O)N(Cc2ccc(F)cc2F)C2CCN(C)CC2)cc1 [Compound 13, [4-(propan-2-yloxy)phenyl]methyl N-[(2,4-difluorophenyl)methyl]-N-(1-methylpiperidin-4-yl)carbamate] | 9.9
17 | COc1ccc(COC(=O)N(Cc2ccc(F)cc2F)C2CCN(C)CC2)cc1 [Compound 15, (4-methoxyphenyl)methyl N-[(2,4-difluorophenyl)methyl]-N-(1-methylpiperidin-4-yl)carbamate] | 9.3
18 | COc1ccc(CSC(=O)N(Cc2ccc(F)cc2F)C2CCN(C)CC2)cc1 [Compound 16, N-[(2,4-difluorophenyl)methyl]-N-(1-methylpiperidin-4-yl){[(4-methoxyphenyl)methyl]sulfanyl}formamide] | 7.6
19 | CC(C)Oc1ccc(C(OC(=O)N(Cc2ccc(F)cc2)C2CCN(C)CC2)C(F)(F)F)cc1 (stereo not drawn) [Compound 17, 2,2,2-trifluoro-1-[4-(propan-2-yloxy)phenyl]ethyl N-[(4-fluorophenyl)methyl]-N-(1-methylpiperidin-4-yl)carbamate] | 7.5
20 | CC(C)Oc1ccc(CC(=O)N(Cc2ccc(F)cc2F)C2CCN(C)CC2)cc1.O=C(O)C(F)(F)F [Compound 19, N-[(2,4-difluorophenyl)methyl]-N-(1-methylpiperidin-4-yl)-2-[4-(propan-2-yloxy)phenyl]acetamide; trifluoroacetic acid] | 8.3
21 | CC(C)COc1ccc(CC(=O)N(Cc2ccc(F)cc2)C2CCN(C)CC2)c(F)c1.O=C(O)C(F)(F)F [Compound 20, 2-[2-fluoro-4-(2-methylpropoxy)phenyl]-N-[(4-fluorophenyl)methyl]-N-(1-methylpiperidin-4-yl)acetamide; trifluoroacetic acid] | 8.2
22 | CC(C)COc1ccc(CC(=O)N(Cc2ccc(F)cc2)C2CCN(C)CC2)cc1F.O=C(O)C(F)(F)F [Compound 21, 2-[3-fluoro-4-(2-methylpropoxy)phenyl]-N-[(4-fluorophenyl)methyl]-N-(1-methylpiperidin-4-yl)acetamide; trifluoroacetic acid] | 8.6
23 | CC(C)COc1ccc(CC(=O)N(Cc2ccc(F)cc2F)C2CCN(C)CC2)cc1.O=C(O)C(F)(F)F [Compound 22, N-(2,4-difluorobenzyl)-2-(4-isobutoxyphenyl)-N-(1-methylpiperidin-4-yl)acetamide; trifluoroacetic acid] | 8.2
24 | CCOc1ccc(COC(=O)N(Cc2ccc(F)cc2F)C2CCN(C)CC2)cc1 [Compound 25, 4-ethoxybenzyl (2,4-difluorobenzyl)(1-methylpiperidin-4-yl)carbamate] | 9.7
25 | C=CCOc1ccc(COC(=O)N(Cc2ccc(F)cc2F)C2CCN(C)CC2)cc1 [Compound 26, 4-(allyloxy)benzyl (2,4-difluorobenzyl)(1-methylpiperidin-4-yl)carbamate] | 9.3
26 | CN1CCC(N(Cc2ccc(F)cc2F)C(=O)OCc2ccc(OCC(C)(C)O)cc2)CC1 [Compound 29, 4-(2-hydroxy-2-methylpropoxy)benzyl (2,4-difluorobenzyl)(1-methylpiperidin-4-yl)carbamate] | 10.2
27 | CN1CCC(N(Cc2ccc(F)cc2F)C(=O)OCc2ccc(OC3CC3)cc2)CC1 [Compound 30, 4-cyclopropoxybenzyl (2,4-difluorobenzyl)(1-methylpiperidin-4-yl)carbamate] | 10.5

The next lines start with the values.

Row | 5-HT2a pKi | Structure (SMILES)
28 | 9.9 | CC(C)COc1ccc(COC(=O)N(Cc2ccc(F)cc2)C2CCN(C)CC2)cc1 [Compound 2, [4-(2-methylpropoxy)phenyl]methyl N-[(4-fluorophenyl)methyl]-N-(1-methylpiperidin-4-yl)carbamate]
29 | 9.6 | CC(C)Oc1ccc(COC(=O)N(Cc2ccc(F)cc2)C2CCN(C)CC2)cc1 [Compound 12, [4-(propan-2-yloxy)phenyl]methyl N-[(4-fluorophenyl)methyl]-N-(1-methylpiperidin-4-yl)carbamate]
30 | 7.6 | CC(C)COc1ccc(COC(=O)N(Cc2ccc(F)cc2F)C2CCN(C)CC2)cc1 [Compound 14, [4-(2-methylpropoxy)phenyl]methyl N-[(2,4-difluorophenyl)methyl]-N-(1-methylpiperidin-4-yl)carbamate]

— patent US11440884B2, “Compounds, salts thereof and methods for treatment of diseases” (ACADIA PHARMACEUTICALS INC., priority 2017, dated 2022)
